Consider one molecule from ChEMBL document CHEMBL5338754, “Identification of Binding Sites in the Nucleotide-Binding Domain of P-Glycoprotein for a Potent and Nontoxic Modulator, the Amine-Containing Monomeric Flavonoid FM04” (J Med Chem, 2023).

Series [1] addresses ATP-dependent translocase ABCB1 (Homo sapiens, UniProt P08183, Q1193K). Kind of series: Negative allosteric modulator activity at human P-gp Q1193K mutant expressed in HEK293FT cells assessed as increase in intracellular doxorubicin accumulation using doxorubicin as substrate at 1 uM incubated for 150 mins by microplate reader assay (reference value: 69.1 +/- 1 %). It is filed as cell-based. The settings on record: 2.5 h.

In series [2] the target is ATP-dependent translocase ABCB1 (Homo sapiens, UniProt P08183, Q1193T). Kind of series: Negative allosteric modulator activity at human P-gp Q1193T mutant expressed in HEK293FT cells assessed as increase in intracellular doxorubicin accumulation using doxorubicin as substrate at 1 uM incubated for 150 mins by microplate reader assay (reference value: 65.5 +/- 0.9 %). The conditions noted are these: 2.5 h. It is filed as cell-based.

In series [3] the target is T1, ATP-dependent translocase ABCB1 (Homo sapiens, UniProt P08183, G1114A). Kind of series: Negative allosteric modulator activity at human P-gp G1114A mutant expressed in HEK293FT cells assessed as fold change in intracellular doxorubicin accumulation using doxorubicin as substrate at 1 uM incubated for 150 mins by microplate reader assay relative to DMSO. The series is classed as cell-based. The settings on record: 2.5 h.
T1 sequence (P08183 whole entry G1114A): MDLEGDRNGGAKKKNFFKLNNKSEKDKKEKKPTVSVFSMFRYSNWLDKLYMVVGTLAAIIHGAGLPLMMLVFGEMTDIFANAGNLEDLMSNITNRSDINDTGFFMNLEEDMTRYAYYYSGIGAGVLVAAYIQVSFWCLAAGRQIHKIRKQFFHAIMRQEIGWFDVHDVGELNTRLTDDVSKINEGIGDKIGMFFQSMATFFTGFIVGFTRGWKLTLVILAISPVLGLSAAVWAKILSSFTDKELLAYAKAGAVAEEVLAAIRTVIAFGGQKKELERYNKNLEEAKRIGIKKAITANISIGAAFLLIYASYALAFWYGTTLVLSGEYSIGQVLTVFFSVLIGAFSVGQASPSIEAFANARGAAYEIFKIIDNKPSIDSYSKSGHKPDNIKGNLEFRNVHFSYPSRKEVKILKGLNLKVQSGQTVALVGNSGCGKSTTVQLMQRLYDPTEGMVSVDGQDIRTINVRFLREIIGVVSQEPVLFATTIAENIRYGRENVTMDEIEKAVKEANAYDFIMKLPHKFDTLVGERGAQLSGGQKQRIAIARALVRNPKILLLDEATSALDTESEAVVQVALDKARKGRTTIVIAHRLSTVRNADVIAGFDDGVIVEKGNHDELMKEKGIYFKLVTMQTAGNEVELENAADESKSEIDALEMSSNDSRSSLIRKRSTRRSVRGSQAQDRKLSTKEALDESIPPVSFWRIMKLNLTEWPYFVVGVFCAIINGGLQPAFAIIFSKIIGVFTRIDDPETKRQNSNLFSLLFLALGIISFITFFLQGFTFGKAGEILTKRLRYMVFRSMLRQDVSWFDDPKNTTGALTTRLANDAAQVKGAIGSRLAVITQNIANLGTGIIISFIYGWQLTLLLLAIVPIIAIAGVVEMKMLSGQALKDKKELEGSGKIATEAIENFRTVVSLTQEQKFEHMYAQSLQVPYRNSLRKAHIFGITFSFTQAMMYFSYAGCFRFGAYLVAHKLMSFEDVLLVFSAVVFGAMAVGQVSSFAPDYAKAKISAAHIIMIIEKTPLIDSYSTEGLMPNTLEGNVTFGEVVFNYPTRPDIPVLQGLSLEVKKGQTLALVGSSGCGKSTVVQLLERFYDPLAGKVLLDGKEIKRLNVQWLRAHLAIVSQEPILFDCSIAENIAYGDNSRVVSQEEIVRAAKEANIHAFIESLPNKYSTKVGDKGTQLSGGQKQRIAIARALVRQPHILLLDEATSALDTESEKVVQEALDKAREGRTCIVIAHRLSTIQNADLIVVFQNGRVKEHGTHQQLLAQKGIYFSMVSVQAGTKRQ

Series [4] addresses ATP-dependent translocase ABCB1 (Homo sapiens, UniProt P08183, I1115K). The series can be described thus: Negative allosteric modulator activity at human P-gp I1115K mutant expressed in HEK293FT cells assessed as increase in intracellular doxorubicin accumulation using doxorubicin as substrate at 1 uM incubated for 150 mins by microplate reader assay (reference value: 97.8 +/- 3.1 %). It is filed as cell-based. The conditions noted are these: 2.5 h.

In series [5] the target is ATP-dependent translocase ABCB1 (Homo sapiens, UniProt P08183, I1115Y). The series can be described thus: Negative allosteric modulator activity at human P-gp I1115Y mutant expressed in HEK293FT cells assessed as increase in intracellular doxorubicin accumulation using doxorubicin as substrate at 1 uM incubated for 150 mins by microplate reader assay (reference value: 97.3 +/- 3.7 %). The series is classed as cell-based. The settings on record: 2.5 h.

Series [6] concerns the target ATP-dependent translocase ABCB1 (Homo sapiens, UniProt P08183, Q1193F). The series can be described thus: Negative allosteric modulator activity at human P-gp Q1193F mutant expressed in HEK293FT cells assessed as reversal of P-gp mediated PTX resistance by measuring sensitivity fold change incubated for 5 days by MTS assay. The series is classed as cell-based. The conditions noted are these: 120 h, time 5 day.

Series [7] addresses T2, ATP-dependent translocase ABCB1 (Homo sapiens, UniProt P08183, T1226W). Kind of series: Negative allosteric modulator activity at human P-gp T1226W mutant expressed in HEK293FT cells assessed as reversal of P-gp mediated PTX resistance by measuring sensitivity fold change incubated for 5 days by MTS assay. The series is classed as cell-based. The conditions noted are these: 120 h, time 5 day.

Series [8] addresses T3, ATP-dependent translocase ABCB1 (Homo sapiens, UniProt P08183, I1115F). The series can be described thus: Negative allosteric modulator activity at human P-gp I1115F mutant expressed in HEK293FT cells assessed as increase in intracellular doxorubicin accumulation using doxorubicin as substrate at 1 uM incubated for 150 mins by microplate reader assay (reference value: 65.5 +/- 0.9 %). It is filed as cell-based. The conditions noted are these: 2.5 h.

Series [9] has as its target ATP-dependent translocase ABCB1 (Homo sapiens, UniProt P08183, Q1193C). The series can be described thus: Negative allosteric modulator activity at human P-gp Q1193C mutant expressed in HEK293FT cells assessed as increase in intracellular doxorubicin accumulation using doxorubicin as substrate at 1 uM incubated for 150 mins by microplate reader assay (reference value: 63 +/- 2.5 %). The series is classed as cell-based. The settings on record: 2.5 h.

Series [10] has as its target T4, ATP-dependent translocase ABCB1 (Homo sapiens, UniProt P08183). Kind of series: Negative allosteric modulator activity at human wildtype P-gp expressed in HEK293FT cells assessed as increase in intracellular doxorubicin accumulation using doxorubicin as substrate at 1 uM incubated for 150 mins by microplate reader assay (reference value: 47.9 +/- 3.5 %). It is filed as cell-based. The conditions noted are these: 2.5 h.

The target in series [11] is ATP-dependent translocase ABCB1 (Homo sapiens, UniProt P08183, G1114L). Kind of series: Negative allosteric modulator activity at human P-gp G1114L mutant expressed in HEK293FT cells assessed as fold change in intracellular doxorubicin accumulation using doxorubicin as substrate at 1 uM incubated for 150 mins by microplate reader assay relative to DMSO. The settings on record: 2.5 h. It is filed as cell-based.

In series [12] the target is T3, ATP-dependent translocase ABCB1. The series can be described thus: Negative allosteric modulator activity at human P-gp I1115F mutant expressed in HEK293FT cells assessed as reversal of P-gp mediated PTX resistance by measuring sensitivity fold change incubated for 5 days by MTS assay. It is filed as cell-based. The settings on record: 120 h, time 5 day.
Series [13] has as its target ATP-dependent translocase ABCB1 (Homo sapiens, UniProt P08183, T1226F). The series can be described thus: Negative allosteric modulator activity at human P-gp T1226F mutant expressed in HEK293FT cells assessed as increase in intracellular doxorubicin accumulation using doxorubicin as substrate at 1 uM incubated for 150 mins by microplate reader assay (reference value: 67.6 +/- 1.9 %). The settings on record: 2.5 h. The series is classed as cell-based.

For series [14], the target named is T2, ATP-dependent translocase ABCB1. Kind of series: Negative allosteric modulator activity at human P-gp T1226W mutant expressed in HEK293FT cells assessed as fold change in intracellular doxorubicin accumulation using doxorubicin as substrate at 1 uM incubated for 150 mins by microplate reader assay relative to DMSO. The series is classed as cell-based. The conditions noted are these: 2.5 h.

Series [15] has as its target ATP-dependent translocase ABCB1 (Homo sapiens, UniProt P08183, I1115A). Kind of series: Negative allosteric modulator activity at human P-gp I1115A mutant expressed in HEK293FT cells assessed as increase in intracellular doxorubicin accumulation using doxorubicin as substrate at 1 uM incubated for 150 mins by microplate reader assay (reference value: 91.6 +/- 4.4 %). It is filed as cell-based. The conditions noted are these: 2.5 h.

Series [16] has as its target ATP-dependent translocase ABCB1 (Homo sapiens, UniProt P08183, T1226A). Kind of series: Negative allosteric modulator activity at human P-gp T1226A mutant expressed in HEK293FT cells assessed as fold change in intracellular doxorubicin accumulation using doxorubicin as substrate at 1 uM incubated for 150 mins by microplate reader assay relative to DMSO. It is filed as cell-based. The settings on record: 2.5 h.

For series [17], the target named is ATP-dependent translocase ABCB1 (Homo sapiens, UniProt P08183, I1115M). The series can be described thus: Negative allosteric modulator activity at human P-gp I1115M mutant expressed in HEK293FT cells assessed as fold change in intracellular doxorubicin accumulation using doxorubicin as substrate at 1 uM incubated for 150 mins by microplate reader assay relative to DMSO. The series is classed as cell-based. The conditions noted are these: 2.5 h.

Series [18] has as its target T1, ATP-dependent translocase ABCB1. Kind of series: Negative allosteric modulator activity at human P-gp G1114A mutant expressed in HEK293FT cells assessed as increase in intracellular doxorubicin accumulation using doxorubicin as substrate at 1 uM incubated for 150 mins by microplate reader assay (reference value: 98.8 +/- 1.4 %). The series is classed as cell-based. The settings on record: 2.5 h.

Series [19] addresses ATP-dependent translocase ABCB1 (Homo sapiens, UniProt P08183, H1195A). The series can be described thus: Negative allosteric modulator activity at human P-gp H1195A mutant expressed in HEK293FT cells assessed as increase in intracellular doxorubicin accumulation using doxorubicin as substrate at 1 uM incubated for 150 mins by microplate reader assay (reference value: 78.1 +/- 1.4 %). The settings on record: 2.5 h. It is filed as cell-based.

Series [20] addresses T4, ATP-dependent translocase ABCB1. The series can be described thus: Activation of P-gp ATPase activity in wildtype human P-gp expressed in HEK293FT cell microsomes at 20 uM incubated for 1 hr in presence of ATP by Glo-luminescence based microplate reader assay (reference value: 0.32 +/- 0.02 pmol/min/microg). On the set-up: species or system Microsome.

T2 sequence (P08183 whole entry T1226W): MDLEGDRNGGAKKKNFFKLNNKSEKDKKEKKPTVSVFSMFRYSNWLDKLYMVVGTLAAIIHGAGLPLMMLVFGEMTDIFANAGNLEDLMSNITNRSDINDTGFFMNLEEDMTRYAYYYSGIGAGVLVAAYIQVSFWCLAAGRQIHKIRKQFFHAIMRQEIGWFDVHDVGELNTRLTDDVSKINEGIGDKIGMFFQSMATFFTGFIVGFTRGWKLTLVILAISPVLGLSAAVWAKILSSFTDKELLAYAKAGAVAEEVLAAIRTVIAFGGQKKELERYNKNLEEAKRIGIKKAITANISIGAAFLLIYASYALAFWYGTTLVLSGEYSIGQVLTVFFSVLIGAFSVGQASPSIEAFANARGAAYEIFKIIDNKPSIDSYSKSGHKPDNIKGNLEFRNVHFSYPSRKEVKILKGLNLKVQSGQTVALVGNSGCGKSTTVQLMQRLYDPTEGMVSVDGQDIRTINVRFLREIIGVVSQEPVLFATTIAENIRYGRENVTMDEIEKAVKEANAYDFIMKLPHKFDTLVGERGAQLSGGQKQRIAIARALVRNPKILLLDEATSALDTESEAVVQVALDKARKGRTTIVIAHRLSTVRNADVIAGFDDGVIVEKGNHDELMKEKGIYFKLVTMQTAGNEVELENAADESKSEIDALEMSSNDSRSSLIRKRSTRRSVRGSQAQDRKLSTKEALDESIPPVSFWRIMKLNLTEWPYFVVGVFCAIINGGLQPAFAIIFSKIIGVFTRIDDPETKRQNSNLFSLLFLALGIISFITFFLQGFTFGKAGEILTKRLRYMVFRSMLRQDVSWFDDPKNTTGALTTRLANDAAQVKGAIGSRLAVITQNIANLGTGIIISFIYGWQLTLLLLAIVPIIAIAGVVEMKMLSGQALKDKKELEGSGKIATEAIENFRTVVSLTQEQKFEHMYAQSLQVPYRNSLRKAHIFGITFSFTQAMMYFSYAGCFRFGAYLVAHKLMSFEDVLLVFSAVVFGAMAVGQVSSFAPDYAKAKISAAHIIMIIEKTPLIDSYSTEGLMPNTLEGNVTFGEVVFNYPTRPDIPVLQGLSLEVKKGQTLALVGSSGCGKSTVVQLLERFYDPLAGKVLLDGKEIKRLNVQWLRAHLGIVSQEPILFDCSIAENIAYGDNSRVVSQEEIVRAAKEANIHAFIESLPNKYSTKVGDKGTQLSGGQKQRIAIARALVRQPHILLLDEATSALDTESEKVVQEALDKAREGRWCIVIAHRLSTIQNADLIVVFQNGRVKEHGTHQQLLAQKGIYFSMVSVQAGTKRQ
T3 sequence (P08183 whole entry I1115F): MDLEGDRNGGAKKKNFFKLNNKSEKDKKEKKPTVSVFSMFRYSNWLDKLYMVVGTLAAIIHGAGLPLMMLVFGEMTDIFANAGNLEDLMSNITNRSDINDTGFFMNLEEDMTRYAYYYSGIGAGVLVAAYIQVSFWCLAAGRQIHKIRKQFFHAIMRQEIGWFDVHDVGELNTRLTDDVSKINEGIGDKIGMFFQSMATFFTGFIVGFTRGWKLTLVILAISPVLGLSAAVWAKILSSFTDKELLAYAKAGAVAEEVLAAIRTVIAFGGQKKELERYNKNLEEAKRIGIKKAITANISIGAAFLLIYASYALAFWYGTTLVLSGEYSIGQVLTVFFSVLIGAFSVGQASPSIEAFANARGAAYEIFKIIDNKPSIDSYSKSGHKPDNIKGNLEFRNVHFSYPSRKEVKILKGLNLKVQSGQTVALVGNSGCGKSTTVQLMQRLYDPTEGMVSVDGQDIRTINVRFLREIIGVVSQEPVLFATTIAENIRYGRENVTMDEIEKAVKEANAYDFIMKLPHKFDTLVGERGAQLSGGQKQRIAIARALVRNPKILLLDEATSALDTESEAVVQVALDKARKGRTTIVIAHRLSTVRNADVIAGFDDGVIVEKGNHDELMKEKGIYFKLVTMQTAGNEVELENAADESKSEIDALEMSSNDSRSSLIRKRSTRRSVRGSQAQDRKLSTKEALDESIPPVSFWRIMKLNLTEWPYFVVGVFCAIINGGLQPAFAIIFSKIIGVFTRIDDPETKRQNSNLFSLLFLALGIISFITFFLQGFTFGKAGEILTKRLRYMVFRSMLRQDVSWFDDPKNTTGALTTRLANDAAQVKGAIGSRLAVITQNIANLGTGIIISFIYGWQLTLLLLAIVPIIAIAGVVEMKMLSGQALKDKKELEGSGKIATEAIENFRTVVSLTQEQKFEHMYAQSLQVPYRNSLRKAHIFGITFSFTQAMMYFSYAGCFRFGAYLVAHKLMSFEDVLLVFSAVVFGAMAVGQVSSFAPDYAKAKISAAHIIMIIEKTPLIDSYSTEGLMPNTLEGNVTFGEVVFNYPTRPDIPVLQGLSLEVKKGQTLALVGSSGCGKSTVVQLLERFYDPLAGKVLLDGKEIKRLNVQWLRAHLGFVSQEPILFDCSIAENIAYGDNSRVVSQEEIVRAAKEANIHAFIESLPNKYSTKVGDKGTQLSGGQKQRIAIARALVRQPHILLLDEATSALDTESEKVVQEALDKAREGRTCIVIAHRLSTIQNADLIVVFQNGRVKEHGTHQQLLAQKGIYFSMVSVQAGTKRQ
T4 sequence (P08183 whole entry): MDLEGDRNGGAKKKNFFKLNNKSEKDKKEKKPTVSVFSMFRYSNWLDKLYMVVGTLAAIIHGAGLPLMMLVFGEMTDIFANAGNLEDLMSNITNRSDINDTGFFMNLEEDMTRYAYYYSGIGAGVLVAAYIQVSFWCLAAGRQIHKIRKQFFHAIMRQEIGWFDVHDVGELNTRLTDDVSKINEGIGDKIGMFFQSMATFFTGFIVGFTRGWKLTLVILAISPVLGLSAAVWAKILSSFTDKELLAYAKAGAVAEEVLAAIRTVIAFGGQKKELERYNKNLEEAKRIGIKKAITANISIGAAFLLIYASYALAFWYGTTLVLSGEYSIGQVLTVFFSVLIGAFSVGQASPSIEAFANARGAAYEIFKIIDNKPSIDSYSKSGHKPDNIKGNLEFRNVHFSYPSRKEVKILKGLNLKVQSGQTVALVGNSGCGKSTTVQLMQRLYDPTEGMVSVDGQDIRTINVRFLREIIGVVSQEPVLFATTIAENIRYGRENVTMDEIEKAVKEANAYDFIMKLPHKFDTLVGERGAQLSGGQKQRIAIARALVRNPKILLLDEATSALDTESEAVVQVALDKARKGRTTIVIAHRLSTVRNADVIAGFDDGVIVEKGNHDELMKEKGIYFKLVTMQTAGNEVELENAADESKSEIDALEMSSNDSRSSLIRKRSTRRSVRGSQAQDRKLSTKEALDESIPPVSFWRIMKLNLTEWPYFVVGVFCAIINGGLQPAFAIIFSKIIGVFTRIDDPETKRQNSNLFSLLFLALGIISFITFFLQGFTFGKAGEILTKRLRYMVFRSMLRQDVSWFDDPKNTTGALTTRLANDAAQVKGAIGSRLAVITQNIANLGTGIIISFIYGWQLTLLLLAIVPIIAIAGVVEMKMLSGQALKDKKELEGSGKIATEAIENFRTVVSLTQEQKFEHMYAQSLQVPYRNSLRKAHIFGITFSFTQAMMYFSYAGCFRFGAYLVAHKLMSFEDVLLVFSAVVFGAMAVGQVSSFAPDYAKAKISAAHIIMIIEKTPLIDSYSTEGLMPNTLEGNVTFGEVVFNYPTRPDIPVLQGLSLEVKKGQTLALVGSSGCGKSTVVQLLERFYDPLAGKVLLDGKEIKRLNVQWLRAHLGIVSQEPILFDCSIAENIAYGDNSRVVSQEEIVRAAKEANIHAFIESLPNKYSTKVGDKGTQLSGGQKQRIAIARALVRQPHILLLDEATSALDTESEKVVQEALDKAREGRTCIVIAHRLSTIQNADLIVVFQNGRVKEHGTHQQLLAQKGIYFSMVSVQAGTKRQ

`O=c1cc(-c2ccc(OCCOCCNCc3ccccc3)cc2)oc2ccccc12`: the Activity is 87.8% in series [1]; 85.4% in [2]; 100.1% in series [4]; 96.4% in [5]; 83.8% in series [8]; 81.4% in series [9]. For the same molecule, the Activity worked out at 90.1% in series [10]; 100.3% in [13]; 89.7% in series [15]; 93.5% in series [18]; 83.9% in series [19]; 0.52 pmol/min/µg in series [20]. In addition, the “fold change (FC)” value is reported as 1 in [3]; 5.6 in series [6]; 56.8 in series [7]; 1 in series [11]; 15.6 in series [12]; 1.5 in [14]. Besides, the “fold change (FC)” value in series [16] and in [17] was 1 in each case.
